One experiment addresses T1, full-length human Hpk1 (Homo sapiens, UniProt Q92918).
T1 construct: A recombinant fusion protein consisting of full-length human Hpk1; GST (N)
Briefly: HPK1 kinase assay (ADP Glo Kinase Assay). The class given is biochemical. To be noted: full-length human GST-Hpk1, ADP Glo, 75 μM ATP; read-out: Hpk1 biochemical (pIC50) (converted). As to the method: Pharmacological Part HPK1 Kinase Assay
A recombinant fusion protein consisting of full-length human Hpk1 with an N-terminal Glutatione S-transferase (GST) tag was produced in a baculovirus/insect cell expression system. GST-Hpk1 protein was purified from cell lysates by glutathione sepharose affinity chromatography. Kinase inhibition was determined using the ADP Glo™ Kinase Assay kit (Promega, V9101). Test compounds were prepared by serial dilution in dimethyl sulfoxide (DMSO) and 0.1 μl of each dilution was spotted onto a 384-well white Proxiplate (Perkin Elmer, 6008289). 8 μl of kinase assay buffer (40 mM Tris pH 7.5, 2 mM dithiothreitol (DTT), 0.05% Bovine Serum Albumin, 5 mM MgCl2) containing Hpk1 protein was transferred to each well and incubated for 30-45 minutes at room temperature. The enzymatic reaction was started by adding 2 μl of kinase assay buffer containing 75 μM ATP. After 120 minutes, the reaction was stopped by adding 3 μl of ADP Glo™ reagent (Promega, V9101) and incubating 45 minutes at room temperature.
On the technique in general: ADP-Glo turns the ADP formed in a reaction into a luminescent signal.

Another experiment concerns the target Hpk1 (Homo sapiens, UniProt Q92918). Briefly: SLP76 phosphorylation assay (SLP76 pS376 in lysates of HEK293 cells engineered to express Hpk1 and SLP76). The class given is cell-based. To be noted: HEK293 cells expressing Hpk1 and SLP76, 4 hours incubation; read-out: pSLP76 (HEK293) (pIC50) (converted). As to the method:
SLP76 Phosphorylation Assay
Hpk1 inhibition in cells was determined by detection of SLP76 phosphorylation at S376 in lysates from HEK293 cells engineered to express Hpk1 and SLP76. Serial dilutions of test compounds were prepared in cell culture medium and 20 μl was transferred into each well of a 96-well plate containing HEK293 cells in 180 μl of culture medium. After incubation for 4 hours at 37° C./5% CO2, the culture medium was removed, plates were put on ice and cells washed with cold Minimal Essential Medium before lysing in 90 μl of cold Mammalian Protein Extraction Reagent (Thermo Scientific, 78501) for 30 minutes on ice. The cell lysates were transferred to another 96-well plate, centrifuged 10 minutes at 3000 rcf (4° C.) and 30 μl transferred to a 96-well High-bind plate (MSD, L15XB-3). After coating overnight at 4° C., the cell lysate was removed, wells were washed with base buffer (TBS, 0.2% Tween-20), and blocking solution (base buffer containing 3% MSD blocker A) was added to each well for 1 hour at room temperature. The blocking solution was removed, the wells were washed with base buffer, and detection antibody (SLP76 pS376) was added in 25 μl base buffer containing 1% MSD blocker A to each well. After a 2 h incubation at room temperature, the detection antibody was removed, wells were washed four times with base buffer, 25 μl SULFO-TAG labeled goat anti-rabbit secondary antibody (MSD, R32AB-1) in base buffer containing 1% MSD blocker A was added to each well and left for 1 hour at room temperature. Wells were washed 4 times with base buffer, 150 μl Read Buffer T was added to each well, and the plates were read in a Mesoscale plate reader (MSD). IC50 values were determined by curve-fitting the electrochemiluminescent signals obtained from the lysates of HEK293 cells expressing Hpk1 and SLP76 treated with test compounds at various concentrations minus the signal obtained from HEK293 cells expressing SLP76 only.

The structures appear in SMILES notation.

T1 sequence (Q92918 whole entry, the tested form may be a part): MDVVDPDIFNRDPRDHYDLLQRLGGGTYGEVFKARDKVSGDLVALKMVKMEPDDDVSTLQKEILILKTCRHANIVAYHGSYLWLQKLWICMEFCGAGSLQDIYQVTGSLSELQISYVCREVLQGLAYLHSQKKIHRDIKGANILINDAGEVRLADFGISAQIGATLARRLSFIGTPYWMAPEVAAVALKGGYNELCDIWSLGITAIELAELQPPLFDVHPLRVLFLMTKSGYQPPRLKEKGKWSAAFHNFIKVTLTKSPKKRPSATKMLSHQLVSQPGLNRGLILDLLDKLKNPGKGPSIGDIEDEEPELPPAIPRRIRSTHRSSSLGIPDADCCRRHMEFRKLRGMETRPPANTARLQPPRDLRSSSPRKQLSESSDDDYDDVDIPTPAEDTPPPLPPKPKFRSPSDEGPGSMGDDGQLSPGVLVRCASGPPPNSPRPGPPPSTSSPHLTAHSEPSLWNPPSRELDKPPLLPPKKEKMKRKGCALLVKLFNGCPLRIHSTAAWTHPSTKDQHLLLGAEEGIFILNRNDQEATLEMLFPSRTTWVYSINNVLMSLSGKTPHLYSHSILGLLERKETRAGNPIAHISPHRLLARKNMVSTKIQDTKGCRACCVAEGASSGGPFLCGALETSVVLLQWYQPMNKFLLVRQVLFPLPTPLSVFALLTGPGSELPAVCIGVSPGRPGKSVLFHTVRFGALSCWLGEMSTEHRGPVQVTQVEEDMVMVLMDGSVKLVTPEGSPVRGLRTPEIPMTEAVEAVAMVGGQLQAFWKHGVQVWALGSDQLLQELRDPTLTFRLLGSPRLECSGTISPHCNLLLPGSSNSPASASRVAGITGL
Hpk1, sequence (Q92918 whole entry): as the sequence (Q92918 whole entry, the tested form may be a part) above

Turning to `Nc1ncc(-c2ccc(C3CCOCC3)c([C@@H]3CCCN3)c2)cc1-c1ccncc1F` [Co. 28], the IC50 at full-length human Hpk1 was 10.2 nM; on Hpk1 it was 316 nM.
For `CC(C)(C#N)c1cc(-c2cc(-c3ccc(C4CCOCC4)c([C@@H]4CCCN4)c3)cnc2N)ccn1` [Co. 29] the same measures were 38 nM and 6030 nM.
`Nc1ncc(-c2ccc(C3CCOCC3)c([C@@H]3CCCN3)c2)cc1-c1ccncc1Cl` [Co. 30]: the IC50 on full-length human Hpk1 was 28.2 nM; at Hpk1 it was 490 nM.
For `Nc1ncc(-c2ccc(C3CCOCC3)c([C@@H]3CCCN3)c2)cc1-c1cc(F)ncc1F` [Co. 31] the same measures were 20.4 nM and 1050 nM.
The like results for `Nc1ncc(-c2ccc(C3CCOCC3)c([C@@H]3CCCN3)c2)cc1-c1cc(F)ncc1Cl` [Co. 32] were, in that order, 28.2 nM and 1860 nM.
The like results for `Nc1ncc(-c2ccc(C3CCOCC3)c([C@@H]3CCCN3)c2)cc1-c1ccnnc1` [Co. 33] were, in that order, 14.5 nM and 2290 nM.
Consider `Nc1ncc(-c2ccc(C3CCOCC3)c([C@@H]3CCCN3)c2)cc1-c1ccnc(C(F)F)c1` [Co. 34], for which the IC50 on full-length human Hpk1 is 17.4 nM; on Hpk1, 1820 nM.
Take `Nc1ncc(-c2ccc(C3CCOCC3)c([C@@H]3CCCN3)c2)cc1-c1ccnc(F)c1Cl` [Co. 35]: the values for the IC50 at full-length human Hpk1 and on Hpk1 were 8.13 nM and 676 nM, respectively.
In the case of `N#Cc1ccc(-c2cc(-c3ccc(C4CCOCC4)c([C@@H]4CCCN4)c3)cnc2N)cc1` [Co. 36], the IC50 on full-length human Hpk1 was 7.94 nM; at Hpk1, 692 nM.
The like results for `Nc1ncc(-c2ccc(C3CCOCC3)c([C@@H]3CCCN3)c2)cc1Br` [Co. 37] were, in that order, 7.24 nM and 646 nM.
The like results for `Nc1ncc(-c2ccc(C3CCCCC3)c([C@@H]3CCCN3)c2)cc1-c1ccnc(F)c1` [Co. 38] were, in that order, 7.59 nM and 1290 nM.
The like results for `Cc1cc(-c2cc(-c3ccc(C4CCOCC4)c([C@@H]4CCCN4)c3)cnc2N)on1` [Co. 39] were, in that order, 2.34 nM and 275 nM.
Turning to `CC1(C)COc2ncc(-c3cc(-c4ccc(C5CCOCC5)c([C@@H]5CCCN5)c4)cnc3N)cc21` [Co. 40], the IC50 was 8.91 nM at full-length human Hpk1 and 1100 nM on Hpk1.
Turning to `Cn1cc(-c2nc(-c3ccc(C4CCOCC4)c([C@@H]4CCCN4)c3)cnc2N)cn1` [Co. 41], the IC50 on full-length human Hpk1 is 4.57 nM; on Hpk1, 617 nM.
The like results for `Nc1ncc(-c2ccc(C3CCOCC3)c([C@@H]3CCCN3)c2)nc1-c1ccncc1` [Co. 42] were, in that order, 24.5 nM and 2000 nM.
Regarding `Nc1ncc(-c2ccc(C3CCOCC3)c([C@@H]3CCCN3)c2)nc1-c1ccnc(F)c1` [Co. 43], the IC50 on full-length human Hpk1 was 21.4 nM; on Hpk1 it was above 10000 nM.
As to `N#Cc1cc(-c2ccc(C3CCOCC3)c([C@@H]3CCCN3)c2)cnc1N` [Co. 44], the IC50 at full-length human Hpk1 was 9.33 nM; at Hpk1 it was 339 nM.
For `Nc1ncc(-c2ccc(C3=CCOC3)c([C@@H]3CCCN3)c2)cc1-c1ccnc(F)c1` [Co. 45], the figures for the IC50 on full-length human Hpk1 and on Hpk1 were 41.7 nM and 1120 nM, respectively.
For `CS(=O)(=O)N1CC=C(c2ccc(-c3cnc(N)c(-c4ccnc(F)c4)c3)cc2[C@@H]2CCCN2)CC1` [Co. 46] the same measures were 35.5 nM and 1020 nM.
For `CC(=O)N1CC=C(c2ccc(-c3cnc(N)c(-c4ccnc(F)c4)c3)cc2[C@@H]2CCCN2)CC1` [Co. 47] the same measures were 24.5 nM and 1350 nM.
The like results for `Nc1ncc(-c2ccc(C3=CCSCC3)c([C@@H]3CCCN3)c2)cc1-c1ccnc(F)c1` [Co. 48] were, in that order, 25.1 nM and 1320 nM.
For the compound `Nc1ncc(-c2ccc(C3=CCS(=O)(=O)CC3)c([C@@H]3CCCN3)c2)cc1-c1ccnc(F)c1` [Co. 49], the IC50 on full-length human Hpk1 was 24 nM; on Hpk1, 2510 nM.
The like results for `Nc1ncc(-c2ccc(C3CCC(F)(F)CC3)c([C@@H]3CCCN3)c2)cc1-c1ccnc(F)c1` [Co. 50] were, in that order, 20 nM and 2450 nM.
